# Laboratory results as given in ChEMBL document CHEMBL4673175, “An epigrammatic status of the azole-based antimalarial drugs” (RSC Med Chem, 2020).
# System: Plasmodium falciparum
# Test: Antiplasmodial activity against chloroquine sensitive Plasmodium falciparum FCR-3 infected in human erythrocytes incubated for 72 hrs by giemsa staining based assay
# Type: functional, organism-based
# Conditions: FCR-3, 72 h
row,EC50 [nM],Compound
1,4,C=CCn1c(=O)/c(=C2\Sc3ccccc3N2C)s/c1=C\c1cccc[n+]1C
2,4,CCn1c(=O)/c(=C2\Sc3ccccc3N2C)s/c1=C/c1cc[n+](CCO)cc1
3,4,CCn1c(=O)/c(=C2\Sc3ccccc3N2C)s/c1=C/c1cc[n+](C)c(-c2ccccc2)c1
4,4,CCn1c(=O)/c(=C2\Sc3ccccc3N2C)s/c1=C\c1cccc[n+]1CCO
5,4,CCn1c(=O)/c(=C2\Sc3ccccc3N2C)s/c1=C\c1ccc2ccccc2[n+]1C
6,4,CCn1c(=O)/c(=C2\Sc3ccccc3N2C)s/c1=C\c1cccc[n+]1C
7,4,CCn1c(=O)/c(=C2\Sc3ccccc3N2C)s/c1=C\c1cc[n+](C)c2ccccc12
8,4,CCn1c(=O)/c(=C2\Sc3ccccc3N2C)s/c1=C\c1cccc(-c2ccccc2)[n+]1C
9,4,CCn1c(=O)/c(=C2\Sc3ccccc3N2C)s/c1=C\c1cccc[n+]1CCCCC(=O)O
10,4,CN1/C(=c2\s/c(=C\c3cc[n+](C)cc3)n(Cc3ccccc3)c2=O)Sc2ccccc21
11,4,CN1/C(=c2\s/c(=C\c3cccc[n+]3C)n(Cc3ccccc3)c2=O)Sc2ccccc21
12,4,CCn1c(=O)/c(=C2\Sc3ccccc3N2C)s/c1=C\c1cc[n+](C)cc1
13,4,CCn1c(=O)/c(=C2\Sc3ccccc3N2C)s/c1=C/c1cc[n+](CCCCC(=O)O)cc1
14,4,C=CCn1c(=O)/c(=C2\Sc3ccccc3N2C)s/c1=C\c1cc[n+](C)cc1

# System: not listed separately
# Test: Selectivity index, ratio of EC50 for cytotoxicity against […] cells to EC50 for antiplasmodial activity against Plasmodium falciparum FCR-3 ATCC 30932 infected in human erythrocytes
# Type: toxicity, cell-based
# Conditions: mouse, read-out: Ratio EC50
row,Compound,selectivity ratio
1,C=CCn1c(=O)/c(=C2\Sc3ccccc3N2C)s/c1=C\c1cccc[n+]1C,> 100
2,CCn1c(=O)/c(=C2\Sc3ccccc3N2C)s/c1=C/c1cc[n+](CCO)cc1,> 100
3,CCn1c(=O)/c(=C2\Sc3ccccc3N2C)s/c1=C/c1cc[n+](C)c(-c2ccccc2)c1,> 100
4,CCn1c(=O)/c(=C2\Sc3ccccc3N2C)s/c1=C\c1cccc[n+]1CCO,> 100
5,CCn1c(=O)/c(=C2\Sc3ccccc3N2C)s/c1=C\c1ccc2ccccc2[n+]1C,> 100
6,CCn1c(=O)/c(=C2\Sc3ccccc3N2C)s/c1=C\c1cccc[n+]1C,> 100
7,CCn1c(=O)/c(=C2\Sc3ccccc3N2C)s/c1=C\c1cc[n+](C)c2ccccc12,> 100
8,CCn1c(=O)/c(=C2\Sc3ccccc3N2C)s/c1=C\c1cccc(-c2ccccc2)[n+]1C,> 100
9,CCn1c(=O)/c(=C2\Sc3ccccc3N2C)s/c1=C\c1cccc[n+]1CCCCC(=O)O,> 100
10,CN1/C(=c2\s/c(=C\c3cc[n+](C)cc3)n(Cc3ccccc3)c2=O)Sc2ccccc21,> 100
11,CN1/C(=c2\s/c(=C\c3cccc[n+]3C)n(Cc3ccccc3)c2=O)Sc2ccccc21,> 100
12,CCn1c(=O)/c(=C2\Sc3ccccc3N2C)s/c1=C\c1cc[n+](C)cc1,> 100
13,CCn1c(=O)/c(=C2\Sc3ccccc3N2C)s/c1=C/c1cc[n+](CCCCC(=O)O)cc1,> 100
14,C=CCn1c(=O)/c(=C2\Sc3ccccc3N2C)s/c1=C\c1cc[n+](C)cc1,> 100

# System: Hemozoin
# Test: Inhibition of beta-hematin formation at 5 to 100 mM incubated for 48 hrs
# Conditions: dose 5-100 mM
row,inhibition [%],Compound
1,< 98,COc1ccc(NC(=O)c2ccc3[nH]c(-c4ccc([N+](=O)[O-])o4)nc3c2)cc1Cl
2,< 98,Cc1ccccc1NC(=O)c1ccc2[nH]c(-c3ccc([N+](=O)[O-])o3)nc2c1
3,< 98,O=C(Nc1ccc(Br)cc1)c1ccc2[nH]c(-c3ccc([N+](=O)[O-])o3)nc2c1
4,< 98,O=C(Nc1ccc(C(F)(F)F)cc1)c1ccc2[nH]c(-c3ccc([N+](=O)[O-])o3)nc2c1
5,< 98,Cc1ccc(NC(=O)c2ccc3[nH]c(-c4ccc([N+](=O)[O-])s4)nc3c2)cc1C
6,< 98,Cc1cc(C)cc(NC(=O)c2ccc3[nH]c(-c4ccc([N+](=O)[O-])o4)nc3c2)c1
7,< 98,COc1ccc(NC(=O)c2ccc3[nH]c(-c4ccc([N+](=O)[O-])s4)nc3c2)cc1Cl
8,< 98,O=C(Nc1ccc(Cl)cc1)c1ccc2[nH]c(-c3ccc([N+](=O)[O-])o3)nc2c1
9,< 98,COc1ccc(NC(=O)c2ccc3[nH]c(-c4ccc([N+](=O)[O-])o4)nc3c2)c(OC)c1
10,< 98,Cc1ccccc1NC(=O)c1ccc2[nH]c(-c3ccc([N+](=O)[O-])s3)nc2c1
11,< 98,COc1cccc(NC(=O)c2ccc3[nH]c(-c4ccc([N+](=O)[O-])o4)nc3c2)c1
12,< 98,COc1cc(NC(=O)c2ccc3[nH]c(-c4ccc([N+](=O)[O-])s4)nc3c2)cc(OC)c1OC
13,< 98,Cc1ccc(NC(=O)c2ccc3[nH]c(-c4ccc([N+](=O)[O-])o4)nc3c2)cc1C
14,< 98,O=C(Nc1ccc(C(F)(F)F)cc1)c1ccc2[nH]c(-c3ccc([N+](=O)[O-])s3)nc2c1
15,< 98,COc1cc(NC(=O)c2ccc3[nH]c(-c4ccc([N+](=O)[O-])o4)nc3c2)cc(OC)c1OC
16,< 98,COc1ccc(NC(=O)c2ccc3[nH]c(-c4ccc([N+](=O)[O-])s4)nc3c2)c(OC)c1
17,< 98,O=C(Nc1ccccc1Cl)c1ccc2[nH]c(-c3ccc([N+](=O)[O-])o3)nc2c1
18,< 98,Cc1cccc(NC(=O)c2ccc3[nH]c(-c4ccc([N+](=O)[O-])s4)nc3c2)c1
19,< 98,COc1cccc(NC(=O)c2ccc3[nH]c(-c4ccc([N+](=O)[O-])s4)nc3c2)c1
20,< 98,O=C(Nc1ccccc1Cl)c1ccc2[nH]c(-c3ccc([N+](=O)[O-])s3)nc2c1
21,< 98,Cc1cc(C)cc(NC(=O)c2ccc3[nH]c(-c4ccc([N+](=O)[O-])s4)nc3c2)c1
22,< 98,Cc1ccc(NC(=O)c2ccc3[nH]c(-c4ccc([N+](=O)[O-])s4)nc3c2)c(C)c1
23,< 98,O=C(Nc1ccc(Cl)cc1)c1ccc2[nH]c(-c3ccc([N+](=O)[O-])s3)nc2c1
24,< 98,Cc1ccc(C)c(NC(=O)c2ccc3[nH]c(-c4ccc([N+](=O)[O-])s4)nc3c2)c1
25,< 98,Cc1cccc(NC(=O)c2ccc3[nH]c(-c4ccc([N+](=O)[O-])o4)nc3c2)c1
26,< 98,O=C(Nc1ccc(Br)cc1)c1ccc2[nH]c(-c3ccc([N+](=O)[O-])s3)nc2c1
27,< 98,Cc1ccc(C)c(NC(=O)c2ccc3[nH]c(-c4ccc([N+](=O)[O-])o4)nc3c2)c1

# System: Plasmodium
# Test: Antimalarial activity against Plasmodium
# Type: functional
# Conditions: not given
row,IC50 [ng/mL],Compound
1,3,C/C(=N\NC(=S)Nc1ccc(C)cc1)c1nc2cc(Cl)ccc2[nH]1
2,3,C/C(=N\NC(N)=S)c1nc2cc(Cl)ccc2[nH]1
3,3,CCNC(=S)N/N=C(\C)c1nc2cc(Cl)ccc2[nH]1
